In patent US7342005B2, “Antibiotic compounds” (AstraZeneca UK Limited, priority 1992, dated 2008):
Values after ≈ are worked out from the molar mass of the structure shown. Like-named read-outs stand apart in the source and are kept apart here.

Key:
Assay in all cases: MIC by agar-dilution, Diagnostic Sensitivity Test
Assay type in all cases: cell-based
Conditions in all cases: inoculum 10^4 CFU/spot
E. coli TEM = test system: E. coli TEM
Description: (§1) The following results were obtained for representative compounds on a standard in vitro test system using Diagnostic Sensitivity Test. The antibacterial activity is described in terms of the minimum inhibitory concentration (MIC) determined by the agar-dilution technique with an inoculum size of 10^4 CFU/spot.

Enterobacter cloacae 029 = test system: Enterobacter cloacae 029
Description: as §1

Enterobacter cloacae 108 = test system: Enterobacter cloacae 108
Description: as §1

S. aureus 147N = test system: S. aureus 147N
Description: as §1

MIC (E. coli TEM; Escherichia coli, read-out: MIC) [µg/mL] | MIC (Enterobacter cloacae 029; read-out: MIC) [µg/mL] | MIC (Enterobacter cloacae 108; read-out: MIC) [µg/mL] | MIC (S. aureus 147N; Staphylococcus aureus, read-out: MIC) [µg/mL] | SMILES | MIC (E. coli TEM) [µg/mL] | MIC (Enterobacter cloacae 029) [µg/mL] | MIC (Enterobacter cloacae 108) [µg/mL] | MIC (S. aureus 147N) [µg/mL]
– | – | – | – | C[C@@H](O)[C@H]1C(=O)N2C(C(=O)O)=C(S[C@@H]3CN[C@H](C(=O)Nc4cc(O)cc(C(=O)O)c4)C3)[C@H](C)[C@H]12 [Example 1, (1R,5S,6S,8R,2′S,4′S)-2-(2-(3-Carboxy-5-hydroxyphenylcarbamoyl)-pyrrolidin-4-yl-thio)-6-(1-hydroxyethyl)-1-methylcarbapenem-3-carboxylic acid] | 0.03 (≈ 0.061 µM) | 0.06 (≈ 0.122 µM) | 1.00 (≈ 2.03 µM) | 0.25 (≈ 0.509 µM)
– | – | – | – | CC(O)C1C(=O)N2C(C(=O)O)=C(SC3CNC(C(=O)Nc4ccc(Cl)c(C(=O)O)c4)C3)C(C)[C@H]12 (stereo partly drawn) [Example 2, (1R,5S,6S,8R,2′S,4′S)-2-(2-(3-Carboxy-4-chlorophenylcarbamoyl)-pyrrolidin-4-ylthio)-6-(1-hydroxyethyl)-1-methylcarbapenem-3-carboxylic acid] | 0.02 (≈ 0.0392 µM) | 0.03 (≈ 0.0588 µM) | 1.00 (≈ 1.96 µM) | 0.50 (≈ 0.98 µM)
– | – | – | – | CC(O)C1C(=O)N2C(C(=O)O)=C(SC3CNC(C(=O)Nc4cccc(C(=O)O)c4)C3)C(C)[C@H]12 (stereo partly drawn) [Example 4, (1R,5S,6S,8R,2′S,4′S)-2-(2-(3-Carboxyphenylcarbamoyl)pyrrolidin-4-ylthio) -6-(1-hydroxyethyl)-1-methylcarbapenem-3-carboxylic acid] | 0.02 (≈ 0.0421 µM) | 0.03 (≈ 0.0631 µM) | 0.50 (≈ 1.05 µM) | 0.25 (≈ 0.526 µM)
– | – | – | – | C[C@@H](O)[C@H]1C(=O)N2C(C(=O)O)=C(S[C@@H]3CN[C@H](C(=O)Nc4ccc(O)c(C(=O)O)c4)C3)[C@H](C)[C@H]12 [Example 10, (1R,5S,6S,8R,2′S,4′S)-2-(2-(3-Carboxy-4-hydroxyphenylcarbamoyl)pyrrolidin-4-ylthio)-6-(1-hydroxyethyl)-1-methylcarbapenem-3-carboxylic acid] | 0.01 (≈ 0.0203 µM) | 0.01 (≈ 0.0203 µM) | 0.25 (≈ 0.509 µM) | 0.13 (≈ 0.264 µM)
0.03 (≈ 0.0541 µM) | 0.06 (≈ 0.108 µM) | 32 (≈ 57.7 µM) | 2 (≈ 3.61 µM) | CO/N=C(\C(=O)N[C@@H]1C(=O)N2C(C(=O)O)=C(CSc3nc(=O)c(=O)[nH]n3C)CS[C@H]12)c1csc(N)n1 [ceftriaxone, reference compound] | – | – | – | –
